pIC50: −log10 of the molar value. Structures can show the parent of a compound that is named as a salt. Where two headings read alike, the source gives them in different places.
Biological target: T1, GPR6 receptor (Homo sapiens, UniProt P46095)
T1 construct: expressed in transfected cells
Assay: Inhibition of cAMP Activity of GPR6 In Vitro Assay (CHO-K1 cells, HTRF cAMP)
Format: cell-based
Details: inhibition of constitutive cAMP activity of GPR6 expressed in CHO-K1 cells, approximate IC50, read-out: IC50
Protocol: Inhibition of cAMP Activity of GPR6 In Vitro Assay
This cell based assay measures the ability of compounds to inhibit the constitutive cAMP activity of GPR6 receptor expressed in CHO-K1 cells. CHO cells were stably expressed with GPR6 receptor, whose expression is controlled by a tetracycline inducable element. The cells were cultured in medium containing F12K, 10% FBS, 1% Penn/Strep, 200 ug/mL Hygromycin. GPR6 receptor expression was induced for 20 hrs with 1 μg/ml doxycycline (sigma D9891) in growth media. After addition of doxycycline cells were plated at a density of 250-500 cells per well in half-volume black clear bottom plates (Costar) and place in an incubator (37°, 5% C(O)2) for 20 hours prior to cAMP assays.
Culture media was removed from cells and they were washed with 50 μL of Ringer's Buffer (MgCl2 0.047 mg/mL, NaH2PO4 0.18 mg/mL, Na2HPO4 0.1 mg/mL, KCl 0.34 mg/mL, NaHC(O)3 1.26 mg/mL, D-glucose 1.8 mg/mL, NaCl 7 mg/mL; pH=7.4). Compounds suspended in DMSO were diluted in Ringer's Buffer containing 0.5% fatty acid free BSA and incubated on cells for 45 min at […] and 5% C(O)2. After incubation cells were incubated for 10 min at room temp with Eu-cAMP tracer solution from a Perkin Elmer Lance HTRF UltracAMP assay kit (TRF0264). Then ULight™-anti-cAMP solution from the Lance HTRF kit was added and incubated on a shaker at room temp for 1 hour prior to HTRF detection in a BMG PolarStar Omega.
IC50 curves were generated with a four-parameter logistic equation using GraphPad Prism 5.03.

T1 sequence (P46095 whole entry): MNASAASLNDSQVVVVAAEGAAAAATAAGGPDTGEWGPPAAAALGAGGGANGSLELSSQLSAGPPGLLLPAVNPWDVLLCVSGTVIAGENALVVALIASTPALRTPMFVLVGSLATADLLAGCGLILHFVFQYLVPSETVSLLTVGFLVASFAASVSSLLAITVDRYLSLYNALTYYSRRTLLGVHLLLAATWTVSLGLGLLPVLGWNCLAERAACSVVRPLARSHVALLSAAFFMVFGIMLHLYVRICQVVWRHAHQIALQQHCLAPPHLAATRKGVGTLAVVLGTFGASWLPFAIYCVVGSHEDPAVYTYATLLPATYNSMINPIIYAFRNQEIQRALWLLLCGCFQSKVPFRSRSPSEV

`Cc1cccc(CN2CCN(c3nc4cccnc4nc3NC3CC3)CC2)c1` [Cpd 2, N-cyclopropyl-2-(4-(3-methylbenzyl)piperazin-1-yl)pyrido[2,3-b]pyrazin-3-amine, 2,2,2-trifluoroacetic acid salt] was tested, and the pIC50 (compounds of Compound Table 1) was 4.34.
`Clc1cccc(CN2CCN(c3nc4ccccc4nc3Nc3ncccn3)CC2)c1` [Cpd 126, 3-(4-(3-chlorobenzyl)piperazin-1-yl)-N-(pyrimidin-2-yl)quinoxalin-2-amine, 2,2,2-trifluoroacetic acid salt] gave a pIC50 (compounds of Compound Table 1) of 4.33.
“4-chloro-3-(1-(7-chloro-2-(cyclopropylamino)pyrido[3,4-b]pyrazin-3-yl)piperidine-4-carbonyl)benzonitrile [Cpd 595]” was tested, and the pIC50 (compounds of Compound Table 1) was 6.32.
With “3-(4-((5-chloro-2-fluorophenyl)fluoromethyl)piperidin-1-yl)-N-cyclopropylpyrido[3,4-b]pyrazin-2-amine [Cpd 452]” the pIC50 (compounds of Compound Table 1) was 7.68.
`Cc1cc(C)c2nc(N3CCN(Cc4cc(Cl)ccc4Cl)CC3)c(NC3CC3)nc2c1` [Cpd 103, N-cyclopropyl-3-(4-(2,5-dichlorobenzyl)piperazin-1-yl)-5,7-dimethylquinoxalin-2-amine] gave a pIC50 (compounds of Compound Table 1) of 5.27.
In the case of “2-(cyclopropylamino)-3-(4-(2,5-dichloroisonicotinoyl)piperazin-1-yl)quinoxaline-6-carbonitrile [Cpd 265]”, the pIC50 (compounds of Compound Table 1) was 6.52.
“3-(4-(4-chloro-2-fluorophenoxy)piperidin-1-yl)-N-isopropylpyrazino[2,3-d]pyridazin-2-amine, 2,2,2-trifluoroacetic acid salt [Cpd 643]” showed a pIC50 (compounds of Compound Table 1) of 7.82.
“(2-(cyclopropylamino)-3-(4-(2-fluoro-4-methoxyphenoxy)piperidin-1-yl)pyrido[3,4-b]pyrazin-7-yl)(4-methylpiperazin-1-yl)methanone [Cpd 603]” was tested, and the pIC50 (compounds of Compound Table 1) was 5.99.
In the case of `Clc1ccc(Cl)c(CN2CCN(c3nc4cc(Br)ccc4nc3NC3CC3)CC2)c1` [Cpd 46, 6-bromo-N-cyclopropyl-3-(4-(2,5-dichlorobenzyl)piperazin-1-yl)quinoxalin-2-amine, 2,2,2-trifluoroacetic acid salt], the pIC50 (compounds of Compound Table 1) was 5.32.
In the case of “(1-(2-(cyclopropylamino)pyrido[3,4-b]pyrazin-3-yl)piperidin-4-yl)(thiophen-2-yl)methanone, 2,2,2-trifluoroacetic acid salt [Cpd 573]”, the pIC50 (compounds of Compound Table 1) was 5.55.
For “3-(4-(2,5-difluorobenzyl)piperazin-1-yl)-2-((6-methoxypyridin-3-yl)amino)quinoxaline-6-carbonitrile, 2,2,2-trifluoroacetic acid salt [Cpd 333]”, the pIC50 (compounds of Compound Table 1) was 7.01.
`Cc1cc(Br)ccc1C(=O)N1CCN(c2nc3ccccc3nc2NC2CC2)CC1` [Cpd 122, (4-bromo-2-methylphenyl)(4-(3-(cyclopropylamino)quinoxalin-2-yl)piperazin-1-yl)methanone, 2,2,2-trifluoroacetic acid salt] was tested, and the pIC50 (compounds of Compound Table 1) was 4.99.
Work on “2-(cyclopropylamino)-3-(4-((2-fluorophenyl)sulfonyl)piperazin-1-yl)quinoxaline-6-carbonitrile, 2,2,2-trifluoroacetic acid salt [Cpd 241]” yielded a pIC50 (compounds of Compound Table 1) of 6.19.
With “2-(cyclobutylamino)-3-(4-(2,5-dichlorobenzyl)piperazin-1-yl)quinoxaline-6-carbonitrile, 2,2,2-trifluoroacetic acid salt [Cpd 336]” the pIC50 (compounds of Compound Table 1) was 6.02.
“(S)—N-cyclopropyl-3-(4-((2,4-difluorophenyl)fluoromethyl)piperidin-1-yl)-7-methylpyrido[3,4-b]pyrazin-2-amine, 2,2,2-trifluoroacetic acid salt [Cpd 502]” gave a pIC50 (compounds of Compound Table 1) of 5.84.
“N-cyclopropyl-3-(4-(4-fluorobenzyl)piperazin-1-yl)pyrido[3,4-b]pyrazin-2-amine, 2,2,2-trifluoroacetic acid salt [Cpd 291]” showed a pIC50 (compounds of Compound Table 1) of 6.85.
Compound “N-cyclopropyl-3-(4-(3-methoxyphenoxy)piperidin-1-yl)pyrido[3,4-b]pyrazin-2-amine, 2,2,2-trifluoroacetic acid salt [Cpd 558]” has a pIC50 (compounds of Compound Table 1) of 5.71.
Work on “8-chloro-N-cyclopropyl-3-(4-((2,5-difluorophenyl)fluoromethyl)piperidin-1-yl)pyrido[3,4-b]pyrazin-2-amine, 2,2,2-trifluoroacetic acid salt [Cpd 486]” yielded a pIC50 (compounds of Compound Table 1) of 7.01.
With “3-(4-(4-chlorobenzyl)piperidin-1-yl)-N-cyclopropylpyrido[3,4-b]pyrazin-2-amine, 2,2,2-trifluoroacetic acid salt [Cpd 424]” the pIC50 (compounds of Compound Table 1) was 6.51.
In the case of “3-(4-(2-fluoro-4-methoxybenzyl)piperidin-1-yl)-N-isopropylpyrazino[2,3-d]pyridazin-2-amine, 2,2,2-trifluoroacetic acid salt [Cpd 642]”, the pIC50 (compounds of Compound Table 1) was 7.27.
For `COc1ccc(Br)c(C(=O)N2CCN(c3nc4ccccc4nc3NC3CC3)CC2)c1` [Cpd 85, (2-bromo-5-methoxyphenyl)(4-(3-(cyclopropylamino)quinoxalin-2-yl)piperazin-1-yl)methanone, 2,2,2-trifluoroacetic acid salt], the pIC50 (compounds of Compound Table 1) was 5.12.
“(1-(2-(cyclopropylamino)pyrido[3,4-b]pyrazin-3-yl)piperidin-4-yl)(o-tolyl)methanone, 2,2,2-trifluoroacetic acid salt [Cpd 565]” showed a pIC50 (compounds of Compound Table 1) of 4.81.
In the case of “3-fluoro-4-((1-(3-(isopropylamino)pyrazino[2,3-d]pyridazin-2-yl)piperidin-4-yl)oxy)benzonitrile, 2,2,2-trifluoroacetic acid salt [Cpd 639]”, the pIC50 (compounds of Compound Table 1) was 7.52.
For `O=C(c1cc2nc(NC3CC3)c(N3CCC([C@H](F)c4ccc(F)cc4F)CC3)nc2cn1)N1CCC1` [Cpd 591, (S)-azetidin-1-yl(2-(cyclopropylamino)-3-(4-((2,4-difluorophenyl)fluoromethyl)piperidin-1-yl)pyrido[3,4-b]pyrazin-7-yl)methanone], the pIC50 (compounds of Compound Table 1) was 7.66.
For “N-cyclopropyl-3-(4-((4-fluorophenyl)sulfonyl)piperazin-1-yl)pyrido[3,4-b]pyrazin-2-amine, 2,2,2-trifluoroacetic acid salt [Cpd 288]”, the pIC50 (compounds of Compound Table 1) was 5.58.
In the case of `CC1CN(C(=O)c2cc(Cl)ccc2Cl)CCN1c1nc2ccccc2nc1NC1CC1` (stereo not drawn) [Compound Table 2: Cpd 8, (4-(3-(cyclopropylamino)quinoxalin-2-yl)-3-methylpiperazin-1-yl)(2,5-dichlorophenyl)methanone, 2,2,2-trifluoroacetic acid salt], the pIC50 (compounds of Compound Table 2) was 4.10.
For “3-(4-((3-chloro-5-fluoro-2-methylphenyl)sulfonyl)piperazin-1-yl)-2-(cyclopropylamino)quinoxaline-6-carbonitrile, 2,2,2-trifluoroacetic acid salt [Cpd 282]”, the pIC50 (compounds of Compound Table 1) was 5.37.
“(1-(2-(cyclopropylamino)pyrido[3,4-b]pyrazin-3-yl)piperidin-4-yl)(3-methoxyphenyl)methanone [Cpd 564]” was tested, and the pIC50 (compounds of Compound Table 1) was 4.96.
In the case of “7-chloro-N-cyclopropyl-3-(4-((2,4-difluorophenyl)fluoromethyl)piperidin-1-yl)pyrido[3,4-b]pyrazin-2-amine, 2,2,2-trifluoroacetic acid salt [Cpd 489]”, the pIC50 (compounds of Compound Table 1) was 8.15.
With “(1-(2-(cyclopropylamino)pyrido[3,4-b]pyrazin-3-yl)piperidin-4-yl)(2,4,6-trifluorophenyl)methanone, 2,2,2-trifluoroacetic acid salt [Cpd 444]” the pIC50 (compounds of Compound Table 1) was 6.70.
